# Results reported in patent publication US20240398894A1, “ANGIOGENIC CONTROL, PREFERABLY COMBINED WITH GLYCAEMIC CONTROL” (BIOTEMPT B.V., priority 2021, published 2024).
# Where a SMILES comes first, the peptide text is derived from it.
# Assays:
# LPS-activity = details: cited from earlier work
# NOD mice = details: cited from earlier work
# human CD4+ cells = experiment: Human CD4+ lymphocyte-migration assay (modified Boyden chamber); assay type: cell-based
# Method: A: Synthetic human-C-peptide (1-31, having ERC-binding-motif LGGGPG) was tested in human CD4+ lymphocyte-migration assay together with negative and treatment controls: no C-peptide added, scrambled version of human C-peptide (1-31, lacking any xGxxPx motif) and pig-C-peptide (1-29, ˜74% similarity to human C-peptide but lacking any xGxxPx motif; alignment with human C-peptide shown herewith).
# Freshly isolated human CD4+ cells were incubated for 3 h with the indicated C-peptide variants (10 nM) to assess the effect on cell migration in a modified Boyden chamber. Results are expressed as the mean±SEM, ****P<0.001 treatments vs. control.
# B: Freshly isolated human CD4 cells were preincubated for 3 h with V14 peptide (10 μM) or lactose (10 mM) and then stimulated with C-peptide (1-31) for 3 H as indicated in (A). Results are expressed as the mean±SEM. *P<0.05, ****P<0.001 treatments vs. control, […] ###P<0.001 treatments vs. human C-peptide (1-31).
# TNF-α and IL-6 = details: rat, hemorrhagic shock; cited from earlier work
# [1] = test system: human pulmonary microvascular endothelial cells; experiment: Microvascular angiogenesis (sprouting) assay in Matrigel; assay type: cell-based; details: for angiogenic activities (total tube length): Matrigel, increasing concentrations, t=24 h, data not shown; for angiogenic (core) activity in sprouting assay: human vascular endothelial cells, as demonstrated herein
# Method: Human pulmonary microvascular endothelial cells (Hpmec, HUVE, or other vascular EC, may also be used) were cultured in EBM-2 medium (Lonza, CC-3156) supplemented with 10% FBS and all components present in the bullet kit (Lonza, CC-4147) containing human recombinant FGF-B, human recombinant VEGF, human recombinant R3-IGF-1, ascorbic acid, human recombinant EGF and GA-1000 (Gentamicin sulfate-Amphotericin). 24 hours prior to the assay Hpmec were starved in EBM-2 medium containing 0.5% FBS instead of 10% FBS. For introduction in the angiogenesis assay, endothelial cells were washed 2 times with warm PBS, trypsinized and resuspended in serum free EBM-2 medium. For the angiogenesis assay, Matrigel (Fisher Scientific, Landsmeer, The Netherlands #11523550) was diluted 1:1 in serum-free EBM-2 medium and plated in a 96-well plate (50 μL). After polymerization, the cells were combined with the experimental peptide fragments and added on top of the Matrigel (100 μL). Pictures of the microvascular network were taken after 24 hours of incubation with a 4× objective and analysed using the plug-in angiogenesis analyser in ImageJ.
# mTOR = details: piglets; cited from earlier work
# [2] = Distribution and elimination of intravenously injected [14C]-AQGV from mice; assay type: in vivo, male CD-1 mice
# Method: The present study, which was conducted by TNO Biosciences, Utrechtseweg, Netherlands, was designed to provide data on the distribution and metabolism of [^14C]-AQGV (Ala-Gln-[1-^14C]Gly-Val) in male CD-1 mice following a single intravenous dose of 50 mg/kg. To this end, mice were sacrificed at 10, 30 and 60 minutes, and 6 and 24 hours after administration of radiolabeled AQGV, counts in various tissues were determined, and the radioactivity present in the urine and plasma were analyzed by HPLC.
# [3] = test system: human umbilical vein endothelial cells; details: dose-dependent; cited from earlier work
# [4] = test system: streptozotocin-induced diabetic mice; details: supplement using osmotic pumps; cited from earlier work
# [5] = after 10 minutes, 50 mg/kg i.v.
compound,measurement,setting,value
VLPAAP,LPS-activity in vitro,LPS-activity,significantly inhibited
VLPALP,T1D-onset,NOD mice,significantly (p<0.0001) delay
same,LPS-activity in vitro,LPS-activity,significantly inhibited
OC[C@H]1O[C@@H](O[C@H]2[C@H](O)[C@@H](O)C(O)O[C@@H]2CO)[C@H](O)[C@@H](O)[C@H]1O (stereo partly drawn) [lactose],effect on CD4+-migratory effects of C-peptide,"human CD4+ cells; preincubated 3 h with V14 peptide (10 μM) or lactose (10 mM), then C-peptide (1-31)",blunted
LOGA,LPS-activity in vitro,LPS-activity,significantly inhibited
LQAV,LPS-activity in vitro,LPS-activity,significantly inhibited
AQGV,LPS-activity in vitro,LPS-activity,significantly inhibited
same,systemic release of IL-6,TNF-α and IL-6,significantly (p<0.001) prevented
same,systemic release of TNF-α,TNF-α and IL-6,significantly (p<0.001) prevented
LGGGPG,angiogenic activities (total tube length),[1],significantly induced angiogenic activities
VLAALP,LPS-activity in vitro,LPS-activity,significantly inhibited
LAGV,LPS-activity in vitro,LPS-activity,significantly inhibited
same,systemic release of IL-6,TNF-α and IL-6,significantly (p<0.001) prevented
same,systemic release of TNF-α,TNF-α and IL-6,significantly (p<0.001) prevented
ALPALP,LPS-activity in vitro,LPS-activity,significantly inhibited
VLPALA,LPS-activity in vitro,LPS-activity,significantly inhibited
VAPALP,LPS-activity in vitro,LPS-activity,significantly inhibited
"C[C@H](N)C(=O)N[C@@H](CCC(N)=O)C(=O)O [AQ, Alanyl-glutamine] (H-Ala-Gln-OH)",autophagy-inhibition,mTOR,demonstrated
GAYPGAPGAYPGAPAPGV [18-meric peptide derived from the human N-terminal fragment of galectin-3],angiogenic (core) activity in sprouting assay,[1],have angiogenic core activities
Ala-Gln-[1-^14C]Gly-Val [[^14C]-AQGV],average total recovery of radioactivity,[2]; 10 minutes after dose administration,83.2%
same,average total recovery of radioactivity,[2]; 30 minutes after dose administration,70.5%
same,average total recovery of radioactivity,[2]; 60 minutes after dose administration,62.9%
same,average total recovery of radioactivity,[2]; 6 hours after dose administration,52.6%
same,average total recovery of radioactivity,[2]; 24 hours after dose administration,50.8%
same,administered radioactivity excreted in feces,[2]; after 24 hours,2.6%
same,administered radioactivity excreted in urine,[2]; after 24 hours,10.2%
same,removal from the blood,[2]; after intravenous injections,rapidly removed
same,"radioactivity in the blood, amount present if all of the counts were in intact peptide","[2]; blood, 10 minutes after single intravenous dose of 50 mg/kg",17.2 µg/g
same,"concentration of ""peptide"" (radioactivity) in kidneys",[2]; [5],362 µg/g
same,"concentration of ""peptide"" (radioactivity) in kidneys","[2]; after 24 hours, 50 mg/kg i.v.",61.9 µg/g
same,"concentration of ""peptide"" (radioactivity) in liver",[2]; [5],105 µg/g
same,"concentration of ""peptide"" (radioactivity) in liver","[2]; after 24 hours, 50 mg/kg i.v.",37.6 µg/g
same,"concentration of ""peptide"" (radioactivity) in lung","[2]; lung, after 10 minutes, 50 mg/kg i.v.",75.2 µg/g
same,time to full hydrolysis of the peptide after administration,[2]; mice,15 min
same,parent compound in plasma,"[2]; plasma after 10 minutes, HPLC, 50 mg/kg i.v.",No parent compound could be detected
same,"concentration of ""peptide"" (radioactivity) in skin","[2]; skin, after 24 hours, 50 mg/kg i.v.",37.5 µg/g
same,"concentration of ""peptide"" (radioactivity) in spleen",[2]; [5],74.7 µg/g
same,"concentration of ""peptide"" (radioactivity) in spleen","[2]; after 24 hours, 50 mg/kg i.v.",39.3 µg/g
same,"concentration of ""peptide"" (radioactivity) in testis","[2]; testis, after 10 minutes, 50 mg/kg i.v.",85.7 µg/g
same,"concentration of ""peptide"" (radioactivity) in thymus","[2]; thymus, after 24 hours, 50 mg/kg i.v.",43.1 µg/g
same,"administered radioactivity exhaled as volatiles, most likely 14C-CO2",[2]; up to 24 hours,About 50%
same,parent compound in urine,"[2]; urine, HPLC, 50 mg/kg i.v.",No parent compound was detected
PGAYPG,angiogenic activities (total tube length),[1],significantly induced angiogenic activities
same,angiogenic (core) activity in sprouting assay,[1],have angiogenic core activities
VGVAPGVGVAPGVGVAPG [18-meric peptide derived from human elastin],angiogenic (core) activity in sprouting assay,[1],core-angiogenic activities have been demonstrated
VGVAPG,angiogenic activities (total tube length),[1],significantly induced angiogenic activities
same,angiogenic (core) activity in sprouting assay,[1],core-angiogenic activities have been demonstrated
human C-peptide,effect on CD4+ lymphocyte migration,"human CD4+ cells; 10 nM, 3 h incubation",upregulating effect
same,concentration of maximal effect on endothelial cell migration and tube formation,[3],0.5 nM
same,rate of skin wound closure,[4],significantly increased
LQGV,T1D-onset,NOD mice,significantly (p<0.0001) delay
same,LPS-activity in vitro,LPS-activity,significantly inhibited
same,systemic release of IL-6,TNF-α and IL-6,significantly (p<0.001) prevented
same,systemic release of TNF-α,TNF-α and IL-6,significantly (p<0.001) prevented
